Reference: patent US20230172915A1, “DHODH INHIBITOR FOR THE TREATMENT OF COVID-19” (priority 2020, published 2023)
Read-outs that look alike come from different tables or passages of the source.

How the values were obtained:
SARS-CoV-2 [1] = assay: SARS-CoV-2 titer in Vero cells, TCID50 assay; type: cell-based
West Nile virus = assay: Antiviral activity, West Nile virus (Vero cells); type: cell-based
[2] = test system: Chinese hamster ovary cells
SARS-CoV-2 USA-WA1/2020 = assay: PTC299 and remdesivir alone or combined, SARS-CoV-2 titer in Vero cells (TCID50); type: cell-based; settings: 24 hours post infection
[3] = Clinical studies of PTC299 (oncology patients, healthy volunteers): tolerability; type: in vivo, human
Text: PTC299 has been extensively evaluated in 9 clinical studies; 5 were in oncology (n=134) and 4 were in healthy volunteers (n=169).
The rationale for this dosing is based on the following: • The dosing regimen utilizes results from PTC’s extensive clinical, safety, and clinical pharmacology experience with the capsule formulation of PTC299 that was used in prior solid tumor clinical studies. • The tablet formulation has approximately 40% relative bioavailability compared with the capsule when administered with food. • The 200 mg BID dosing for 7 days have been tested previously in healthy volunteers in study PTC299-ONC-002-HV with no serious adverse events. […] The dosing of 200 mg BID for the first 7 days will raise the exposure of the drug quickly to accommodate the need for rapid onset of PTC299 activity..

Rift Valley fever virus = assay: microbe, parasite or virus in culture; type: cell-based; settings: HeLa, read-out: EC50 Rift Valley fever virus
Poliovirus = assay: microbe, parasite or virus in culture; type: cell-based; settings: Enterovirus C, HeLa, read-out: EC50 Poliovirus
SARS-CoV-2 [4] = assay: SARS-CoV-2 infected Vero cells, N-protein antibody and DAPI staining; settings: 30 nM, 300 nM
PBMCs plus B cells (BT) = assay: BioMAP profiling, BT system; type: cell-based; settings: for inhibition at 0.01 µM: 10 nM; for inhibition at 0.1 µM: 100 nM
Description: (§1) The effect of PTC299 on cytokine production was assessed using BioMAP profiling (BioSeek, now part of Eurofins). The BioMAP system is comprised of complex co-cultures of primary peripheral blood mononuclear cells (PBMCs) with other cell types including B cells, fibroblasts, and endothelial cells allowing for the measurement of physiologically relevant biomarker readouts of the activity of a compound. Using this system, cytokine production was evaluated in the following models of primary cell disease models: • Peripheral blood mononuclear cells (PBMCs) plus venular endothelial cells (sAg) • PBMCs plus B cells (BT) • PBMCs plus fibroblasts (HDFSAg) • TH2 cells plus venular endothelial cells (/TH2).
(§2) Abbreviations in Table 4: BCR, B-cell receptor; BT System, co-culture of CD19+ B cells and PBMC that utilizes BCR stimulation and sub-mitogenic TCR stimulation; HDFSAg system, co-culture of human primary dermal fibroblasts and PBMC that is stimulated with sub-mitogenic TCR levels; IL, interleukin; PBMC, Peripheral Blood Mononuclear Cell; SAg system, co-culture of endothelial cells and PBMC stimulated with mitogenic levels of TCR ligands; TCR, T-cell receptor; /TH2 system, co-culture of endothelial cells and Th2 blasts stimulated with TCR ligands and cytokines; Th2, T helper type 2; VEGF, vascular endothelial growth factor.

[5] = Rhesus monkey single oral dose PK; type: in vivo, Rhesus monkeys; settings: single oral 10 mg/kg dose
Description: (§3) FIG. 10 is a plot of PTC299 plasma concentration (µg/mL) vs hours of plasma dihydroorotate (DHO) and PTC299 concentrations after a single dose of PTC299 was administered to a single monkey.
(§4) The dosing regimen used in the current study was also supported by experiments performed in Rhesus monkeys. Monkeys were given a single oral 10 mg/kg dose of PTC299. The DHO plasma level increased after dosing, peaked at 24 hours and then decreased, as illustrated in FIG. 10. […] The AUC for PTC299 is consistent with that observed in the healthy volunteer study PTC299-ONC-002-HV indicating this exposure would result in inhibition of DHODH and supports the use of the 200 mg BID dosing regimen in the current study.

[6] = In vivo rat micronucleus assay
DHODH = assay: Rhesus monkey single oral dose PD (plasma DHO); type: in vivo, Rhesus monkeys; settings: after single oral 10 mg/kg dose of PTC299, Rhesus monkey
Description: as §3, §4

[7] = test system: HT1080 human fibrosarcoma cells; assay: De novo pyrimidine nucleotide synthesis from 15N-glutamine in HT1080 cells; type: cell-based; settings: 100 nM
Text: In this Example, fibrosarcoma cells were used to investigate the effect of PTC299 on pyrimidine nucleotide synthesis. Glutamine is an upstream precursor of dihydroorotic acid in the de novo pyrimidine synthesis pathway, as illustrated in FIG. 1.

[8] = test system: TH2 cells plus venular endothelial cells (/TH2); assay: BioMAP profiling, /TH2 system; type: cell-based; settings: Endothelial cell; for inhibition at 0.1 µM: /TH2, 100 nM
Description: as §1, §2

[9] = Severe acute respiratory syndrome coronavirus 2, Vero cells, extended dose response 0.003-1000 nM
[10] = read-out: % Inhibition s-IL-17F

COc1ccc([C@H]2c3[nH]c4ccc(Cl)cc4c3CCN2C(=O)Oc2ccc(Cl)cc2)cc1 [PTC299, 4-chlorophenyl (S)-6-chloro-1-(4-methoxyphenyl)-1,3,4,9-tetrahydro-2H-pyrido[3,4-b]indole-2-carboxylate]
drop in titer versus untreated cells (SARS-CoV-2 [1]; Example 11, 1, 0.5, or 0.25 µM, 24 hours post infection): three log drop in titer
EC50 (SARS-CoV-2 [1]; [9]): 2.6 nM
EC90 (SARS-CoV-2 [1]; [9]): 53 nM
viral replication (SARS-CoV-2 [1]; cells preincubated for 18 hours): inhibited viral replication
effect of excess uridine on inhibition of SARS-CoV-2 replication (SARS-CoV-2 [1]; excess uridine (100 uM)): overcame inhibition of SARS-CoV-2 replication
reduction of viral replication (SARS-CoV-2 [1]; pre-incubation 2 hours with 250, 500, and 1000 nM, after 24 hours, all dose levels): about 3 orders of magnitude
EC50 (West Nile virus): 10 nM
chromosomal aberration assay [2]: negative
reduction in SARS-CoV-2 titer (SARS-CoV-2 USA-WA1/2020; PTC299 250 nM): 96%
reduction in SARS-CoV-2 titer (SARS-CoV-2 USA-WA1/2020; PTC299 500 nM): 98%
tolerability across 9 clinical studies ([3]; oncology n=134, healthy volunteers n=169, range of dosing regimens): generally well tolerated
dose-related hepatotoxicity ([3]; prior clinical studies): observed at higher doses and longer treatment durations (>85 days)
EC50 (Rift Valley fever virus): 13 nM
EC50 (Poliovirus): 0.6 nM
viability of the cells (DAPI stain) (SARS-CoV-2 [4]; 3 µM): not cytotoxic
viral levels by N-protein antibody staining (SARS-CoV-2 [4]; 3 µM versus untreated controls): Increasing the PTC299 concentration led to greater reductions
inhibition at 0.01 µM (PBMCs plus B cells (BT); read-out: % Inhibition s-IL-6): 53%
inhibition at 0.01 µM (PBMCs plus B cells (BT); [10]): 58%
inhibition at 0.01 µM (PBMCs plus B cells (BT); read-out: % Inhibition sIL-17A): 68%
inhibition at 0.01 µM (PBMCs plus B cells (BT); read-out: % Inhibition sIgG): 97%
inhibition at 0.01 µM (PBMCs plus B cells (BT); read-out: % Inhibition sTNFa): 49%
inhibition at 0.1 µM (PBMCs plus B cells (BT); read-out: % Inhibition s-IL-6): 72%
inhibition at 0.1 µM (PBMCs plus B cells (BT); [10]): 74%
inhibition at 0.1 µM (PBMCs plus B cells (BT); read-out: % Inhibition sIL-17A): 83%
inhibition at 0.1 µM (PBMCs plus B cells (BT); read-out: % Inhibition sIgG): 98%
inhibition at 0.1 µM (PBMCs plus B cells (BT); read-out: % Inhibition sTNFa): 66%
inhibition at 0.1 µM (PBMCs plus B cells (BT); B-cell, read-out: % Inhibition B cell proliferation): 31%
AUC ([5]; plasma, read-out: AUC of PTC299): 22500 ng·h/mL
Cmax ([5]; plasma, read-out: Cmax of PTC299): 2510 ng/mL
half-life ([5]; plasma, read-out: Half-life of PTC299 (converted)): 33 h
Tmax of PTC299 [5]: 2 hr post-dose
in vivo rat micronucleus assay [6]: negative
AUC of plasma DHO (DHODH): 71.4 µg·h/mL
suppression of de novo pyrimidine nucleotide biosynthesis [7]: resulted in suppression of de novo pyrimidine nucleotide biosynthesis
inhibition at 0.01 µM ([8]; /TH2, 10 nM, read-out: % Inhibition MCP-1 (converted)): 21%
inhibition at 0.1 µM ([8]; read-out: % Inhibition MCP-1 (converted)): 25%
inhibition at 0.1 µM ([8]; read-out: % Inhibition sIL-17): 23%
